This note sets out measurements from ChEMBL document CHEMBL1921760, “Design, synthesis and biological evaluation of 6-pyridylmethylaminopurines as CDK inhibitors” (Bioorg Med Chem, 2011).

Active and inactive are the calls of the source.

Series [1] can be described thus: Oral bioavailability in BALB/c mouse at 50 mg/kg by LC-MS analysis. In kind it is ADME, organism-based. The following applies: in vivo.
Series [2] is described as follows: Clearance in BALB/c mouse plasma at 50 mg/kg, iv after 24 hrs by LC-MS analysis. The format is ADME, organism-based. More on the design: dose 50 mg/kg, route intravenous.
Series [3] has as its target Cyclin-dependent kinase 7/ cyclin H (Homo sapiens, UniProt P50613). Nature of the series: Inhibition of CDK7/cyclin H. In kind it is protein-complex assay.
In another series the test system is KM12. Nature of the series: Growth inhibition of human KM12 cells after 96 hrs by sulforhodamine B assay. The format is functional. To be noted: KM12, 96 h.
A short description of series [4]: Cmax in BALB/c mouse plasma at 50 mg/kg, iv after 24 hrs by LC-MS analysis. In kind it is ADME, organism-based. More on the design: dose 50 mg/kg, route intravenous.
Series [5] has as its target Cyclin-dependent kinase 1/cyclin B1 (Homo sapiens, UniProt P06493). Nature of the series: Inhibition of CDK1/cyclin B. The format is protein-complex assay.
A short description of series [6]: AUC in BALB/c mouse plasma at 50 mg/kg, iv after 24 hrs by LC-MS analysis. In kind it is ADME, organism-based. More on the design: time < 24 hr, dose 50 mg/kg, route intravenous.
For series [7], the system named is A2780. Nature of the series: Growth inhibition of cisplatin-susceptible human A2780 cells after 96 hrs by sulforhodamine B assay. The format is functional. To be noted: A2780, 96 h.
Series [8] concerns CH1. Nature of the series: Growth inhibition of doxorubicin-susceptible human CH1 cells after 96 hrs by sulforhodamine B assay. The format is functional. The following applies: CH1, 96 h. For orientation: Sulforhodamine B stains cellular protein and so reports cell mass.
Series [9] relates to HT-29. Nature of the series: Growth inhibition of human HT-29 cells after 96 hrs by sulforhodamine B assay. The format is functional. To be noted: HT-29, 96 h.
Series [10] can be described thus: Volume of distribution in BALB/c mouse plasma at 50 mg/kg, iv after 24 hrs by LC-MS analysis. The format is ADME, organism-based. More on the design: dose 50 mg/kg, route intravenous.
For the next series, the system named is Mus musculus. Nature of the series: Ratio of Seliciclib clearance to compound clearance in BALB/c mouse plasma at 50 mg/kg, iv after 24 hrs by LC-MS analysis. In kind it is ADME, organism-based. To be noted: in vivo. More on the design: dose 50 mg/kg, route intravenous.
The target of series [11] is Cyclin-dependent kinase 4/cyclin D1 (Homo sapiens, UniProt P11802). Nature of the series: Inhibition of CDK4/cyclin D1. The format is protein-complex assay.
A short description of series [12]: Solubility of the compound in water. In kind it is physicochemical. The following applies: buffer.
Series [13] is described as follows: Inhibition of PKA.
The nature of series [14]: Metabolic stability in mouse liver microsomes assessed as compound metabolized at 10 uM after 30 mins by LC-MS analysis. In kind it is ADME, Microsome. The following applies: read-out: Activity. A general note: Microsomes from liver hold many membrane-bound enzymes, among them those of drug oxidation.
The target of series [15] is Cyclin-dependent kinase 2/cyclin E1 (Homo sapiens, UniProt P24941). Nature of the series: Inhibition of CDK2/cyclin E. The format is protein-complex assay.
Series [16] has as its system A2780. Nature of the series: Growth inhibition of cisplatin-resistant human A2780 cells after 96 hrs by sulforhodamine B assay. In kind it is functional. The following applies: A2780, 96 h.
The target of the next series is CDK9/cyclin T1 (Homo sapiens, UniProt P50750). Nature of the series: Inhibition of CDK9/cyclin T1. The format is protein-complex assay.
Series [17] has as its system CH1. Nature of the series: Growth inhibition of doxorubicin-resistant human CH1 cells after 96 hrs by sulforhodamine B assay. In kind it is functional. The following applies: CH1, 96 h.
A short description of series [18]: Half life in BALB/c mouse plasma at 50 mg/kg, iv by LC-MS analysis. The format is ADME, organism-based. More on the design: dose 50 mg/kg, route intravenous.
Series [19] has as its system HCT-116. Nature of the series: Growth inhibition of human HCT116 cells after 96 hrs by sulforhodamine B assay. The format is functional. The following applies: HCT-116, 96 h.
In series [20] the test system is HCT-116. Nature of the series: Antitumor activity against human HCT116 cells xenografted in NCR athymic mouse assessed as reduction in tumor volume at 50 mg/kg, po twice daily at 12 to 14 hrs intervals measured after 12 days relative to vehicle treated control. More on the design: scale not given: the % may be the effect or the level left. The format is functional. (In general: Xenograft models place foreign cells or tissue in a host animal.)

Series [21] deals with HT-29. Nature of the series: Inhibition of CDK-mediated RB phosphorylation at Ser-780 in human HT29 cells at 0.1 to 20 uM after 24 hrs by Western blotting relative to control. In kind it is cell-based.
Series [22] concerns HT-29. Nature of the series: Cell cycle arrest in human HT-29 cells assessed as reduction at S phase at 3.3 uM up to 16 hrs measuring distribution of bromodeoxyuridine incorporation by flow cytometry. The format is functional, cell-based.
Series [23] deals with HT-29. Nature of the series: Cell cycle arrest in human HT-29 cells assessed as accumulation at G2/M phase at 3.3 uM up to 16 hrs measuring distribution of bromodeoxyuridine incorporation by flow cytometry. The format is functional, cell-based.
The test system of series [24] is HT-29. Nature of the series: Reduction of RNA polymerase 2 expression in human HT-29 cells. In kind it is functional, cell-based.
Series [25] deals with HCT-116. Nature of the series: Antitumor activity against human HCT116 cells xenografted in NCR athymic mouse assessed as growth delay at 50 mg/kg, po twice daily at 12 to 14 hrs intervals measured after 12 days relative to vehicle treated control. In kind it is functional, organism-based. More on the design: dose 50 mg/kg.

Chain of Cyclin-dependent kinase 1/cyclin B1 (P06493 whole entry): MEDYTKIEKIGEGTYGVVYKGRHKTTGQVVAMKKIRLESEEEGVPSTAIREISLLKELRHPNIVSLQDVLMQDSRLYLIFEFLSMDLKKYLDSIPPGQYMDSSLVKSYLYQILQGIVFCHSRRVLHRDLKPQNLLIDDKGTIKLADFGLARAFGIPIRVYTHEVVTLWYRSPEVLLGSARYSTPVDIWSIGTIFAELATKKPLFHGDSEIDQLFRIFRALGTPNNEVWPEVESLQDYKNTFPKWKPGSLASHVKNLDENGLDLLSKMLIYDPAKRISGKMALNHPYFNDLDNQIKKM
Chain of Cyclin-dependent kinase 1/cyclin B1 (P14635 whole entry, further chain): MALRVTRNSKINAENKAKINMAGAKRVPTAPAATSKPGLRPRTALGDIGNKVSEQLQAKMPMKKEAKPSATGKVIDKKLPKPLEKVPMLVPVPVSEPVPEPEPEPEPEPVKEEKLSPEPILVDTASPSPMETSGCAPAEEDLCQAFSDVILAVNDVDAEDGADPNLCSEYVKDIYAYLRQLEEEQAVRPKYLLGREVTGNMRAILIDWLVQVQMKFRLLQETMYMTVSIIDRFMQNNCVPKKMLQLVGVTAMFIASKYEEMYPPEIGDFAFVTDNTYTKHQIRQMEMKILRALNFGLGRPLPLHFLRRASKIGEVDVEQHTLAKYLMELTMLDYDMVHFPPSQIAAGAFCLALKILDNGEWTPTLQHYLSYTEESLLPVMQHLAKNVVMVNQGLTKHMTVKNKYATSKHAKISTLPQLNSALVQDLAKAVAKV
Chain of CDK9/cyclin T1 (O60563 whole entry): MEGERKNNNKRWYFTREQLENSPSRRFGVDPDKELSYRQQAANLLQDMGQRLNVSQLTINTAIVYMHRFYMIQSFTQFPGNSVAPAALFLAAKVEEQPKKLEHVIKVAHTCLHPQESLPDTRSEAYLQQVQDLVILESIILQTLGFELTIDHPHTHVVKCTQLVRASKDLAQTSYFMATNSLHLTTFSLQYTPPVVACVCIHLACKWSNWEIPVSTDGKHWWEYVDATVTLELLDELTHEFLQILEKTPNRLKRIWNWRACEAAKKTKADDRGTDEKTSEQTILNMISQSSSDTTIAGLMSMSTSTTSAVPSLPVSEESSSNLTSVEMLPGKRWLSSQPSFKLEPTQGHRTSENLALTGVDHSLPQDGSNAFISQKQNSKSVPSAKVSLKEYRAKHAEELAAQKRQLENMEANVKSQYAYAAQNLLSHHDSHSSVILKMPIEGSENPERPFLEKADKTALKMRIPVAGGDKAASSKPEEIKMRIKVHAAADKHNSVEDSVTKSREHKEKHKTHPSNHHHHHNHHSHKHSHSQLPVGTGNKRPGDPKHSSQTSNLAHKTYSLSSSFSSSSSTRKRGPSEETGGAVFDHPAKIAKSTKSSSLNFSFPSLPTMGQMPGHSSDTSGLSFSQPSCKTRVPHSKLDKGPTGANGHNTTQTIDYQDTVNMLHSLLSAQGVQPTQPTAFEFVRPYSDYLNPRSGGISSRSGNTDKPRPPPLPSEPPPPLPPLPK
Chain of CDK9/cyclin T1 (P50750 whole entry): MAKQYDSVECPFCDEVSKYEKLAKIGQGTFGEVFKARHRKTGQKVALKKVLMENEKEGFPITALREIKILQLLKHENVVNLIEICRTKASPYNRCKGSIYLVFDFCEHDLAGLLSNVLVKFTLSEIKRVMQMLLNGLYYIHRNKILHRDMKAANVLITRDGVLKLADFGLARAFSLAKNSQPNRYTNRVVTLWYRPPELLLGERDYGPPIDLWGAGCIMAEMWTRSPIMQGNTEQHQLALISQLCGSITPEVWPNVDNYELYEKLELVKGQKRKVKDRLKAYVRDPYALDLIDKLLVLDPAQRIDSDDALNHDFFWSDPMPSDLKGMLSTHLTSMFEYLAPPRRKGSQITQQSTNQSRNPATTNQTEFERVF
Chain of Cyclin-dependent kinase 4/cyclin D1 (P11802 whole entry): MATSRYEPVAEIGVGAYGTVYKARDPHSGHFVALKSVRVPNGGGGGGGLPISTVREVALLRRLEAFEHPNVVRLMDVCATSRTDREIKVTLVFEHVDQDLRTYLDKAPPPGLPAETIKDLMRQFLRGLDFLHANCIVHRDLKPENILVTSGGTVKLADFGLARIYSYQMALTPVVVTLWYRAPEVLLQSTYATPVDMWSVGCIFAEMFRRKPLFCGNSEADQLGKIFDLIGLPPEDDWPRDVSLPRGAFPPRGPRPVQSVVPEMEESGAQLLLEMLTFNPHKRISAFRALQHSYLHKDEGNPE
Chain of Cyclin-dependent kinase 4/cyclin D1 (P24385 whole entry, further chain): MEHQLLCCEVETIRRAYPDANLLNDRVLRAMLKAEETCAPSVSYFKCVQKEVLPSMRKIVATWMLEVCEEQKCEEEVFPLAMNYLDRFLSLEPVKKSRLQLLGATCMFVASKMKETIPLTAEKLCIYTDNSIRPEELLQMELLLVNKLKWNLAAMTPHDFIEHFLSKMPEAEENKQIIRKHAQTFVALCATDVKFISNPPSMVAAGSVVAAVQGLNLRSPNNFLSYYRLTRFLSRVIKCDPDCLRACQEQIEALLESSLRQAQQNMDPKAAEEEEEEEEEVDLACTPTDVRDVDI
Chain of Cyclin-dependent kinase 7/ cyclin H (P51946 whole entry): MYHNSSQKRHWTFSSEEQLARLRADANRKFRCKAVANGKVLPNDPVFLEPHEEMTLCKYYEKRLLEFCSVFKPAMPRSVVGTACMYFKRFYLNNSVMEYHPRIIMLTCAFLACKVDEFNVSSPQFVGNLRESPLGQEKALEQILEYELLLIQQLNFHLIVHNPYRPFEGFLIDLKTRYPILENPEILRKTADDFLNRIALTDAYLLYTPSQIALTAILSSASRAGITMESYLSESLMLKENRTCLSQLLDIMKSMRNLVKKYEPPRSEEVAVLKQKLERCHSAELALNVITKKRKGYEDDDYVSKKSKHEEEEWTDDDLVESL
Chain of Cyclin-dependent kinase 7/ cyclin H (P50613 whole entry): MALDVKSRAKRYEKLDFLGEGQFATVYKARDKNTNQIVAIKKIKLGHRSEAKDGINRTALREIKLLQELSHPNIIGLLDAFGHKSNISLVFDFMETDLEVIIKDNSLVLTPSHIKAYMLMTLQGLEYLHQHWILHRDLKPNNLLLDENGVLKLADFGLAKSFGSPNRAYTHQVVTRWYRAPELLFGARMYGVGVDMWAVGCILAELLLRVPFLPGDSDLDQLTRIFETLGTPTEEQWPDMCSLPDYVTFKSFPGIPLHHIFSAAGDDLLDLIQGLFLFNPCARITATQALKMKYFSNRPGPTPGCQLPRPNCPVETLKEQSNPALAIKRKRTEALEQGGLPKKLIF

By bioavailability is commonly meant the share of a dose that reaches the circulation, judged against a reference dose that is usually intravenous. What is called clearance is a measure of how efficiently the substance is removed, as volume per time. Usually IC50 stands for the point on the concentration scale where inhibition reaches its midpoint. Broadly, the GI50 is the concentration giving 50% growth inhibition. For orientation: Cmax means the highest concentration seen after dosing. In general, AUC refers to concentration integrated over time. A word on the Vd: it is the apparent volume that relates the amount in the body to the concentration in plasma or blood. As usually defined, the half-life is the time needed for the level to fall by half in the phase considered. `CC[C@@H](Nc1nc(NCc2cccnc2)c2ncn(C(C)C)c2n1)C(C)(C)O`: in [1], the bioavailability worked out at 15%. For the same compound, the clearance in series [2] is 0.2 mL/min. Besides, the IC50 is 3.1 µM in [3]; 6.2 µM in series [5]; 7.5 µM in series [11]; greater than 200 µM in series [13]; 0.2 µM in series [15]; 0.21 µM against CDK9/cyclin T1. Also, the GI50 was 13 µM with KM12; 10 µM with A2780 [7]; 20 µM in the series on CH1 [8]; 19 µM with HT-29 [9]; 21 µM in the series on A2780 [16]; 21 µM in the series with CH1 [17]. Moreover, the GI50 in the series on HCT-116 [19] was determined as 13 µM. In series [4], this compound yielded a Cmax of 275 µM. For the same compound, in series [6], the AUC at 24 h came to 223 µM·h. This compound also came in with a Vd in series [10] of 0.01 L. In the series on Mus musculus, the Ratio amounted to 2. In series [12], the solubility entry is on record as “soluble”. In addition, the metabolised at 0.5 h, 10 µM in [14] turned out to be 16%. For the same compound, in [18], the half-life was 0.6 h.

Compound `CC[C@H](Nc1nc(NCc2cccnc2)c2ncn(C(C)C)c2n1)C(C)(C)O` returned a bioavailability in [1] of 15%. This compound gave a clearance in series [2] of 0.4 mL/min. Moreover, the concentration for half-maximal inhibition (IC50) is 2.5 µM in series [3]; 4.4 µM in [5]; 12 µM in series [11]; greater than 200 µM in series [13]; 0.07 µM in [15]; 0.16 µM against CDK9/cyclin T1. The GI50 in the series on KM12 amounted to 5.4 µM; in the series on A2780 [7], 4 µM; in the series with CH1 [8], 5 µM; with HT-29 [9] it was 5.4 µM; in the series with A2780 [16] it was 5.8 µM; in the series on CH1 [17], 6.8 µM. The compound also had a GI50 in the series with HCT-116 [19] of 4.1 µM. Besides, in series [4], the highest level (Cmax) was 215 µM. The AUC at 24 h in series [6] was 109 µM·h. In series [10], the Vd was 0.012 L. Also, the Ratio in the series with Mus musculus came out at 2. In addition, in series [12], the solubility entry is reported as “soluble”. Further, in [14], the metabolised at 0.5 h, 10 µM was found to be 22%. The compound further showed a half-life in series [18] of 0.4 h.

As for `CC[C@@H](Nc1nc(NCc2cccnc2)c2ncn(C(C)C)c2n1)[C@H](C)O`, the bioavailability in series [1] was 15%. Also, the clearance in series [2] was 0.283 mL/min. Further, the concentration in series [4] peaked (Cmax) at 377 µM. The AUC at 24 h in series [6] was 158 µM·h. Moreover, the Vd in series [10] came out at 0.084 L. In addition, the solubility entry in series [12] is given as “soluble”. The compound further had a half-life in series [18] of 1.7 h.

In [1], `CC[C@H](Nc1nc(NCc2cccnc2)c2ncn(C(C)C)c2n1)[C@@H](C)O` [listing 1 of 2 here] returned a bioavailability of 15%. For the same compound, in [2], the clearance is 0.15 mL/min. The concentration in series [4] peaked (Cmax) at 268 µM. In series [6], this compound displayed an exposure (AUC) at 24 h of 298 µM·h. Besides, the Vd in [10] is 0.013 L. For the same compound, in series [12], the solubility entry was “soluble”. The Activity in the series on HCT-116 [20] was 49%. The half-life in series [18] was 2.8 h.

As for `CC[C@H](Nc1nc(NCc2cccnc2)c2ncn(C(C)C)c2n1)[C@@H](C)O` [listing 2 of 2 here], the inhibition result in the series on HT-29 [21] is “Active”. Further, the outcome in the series on HT-29 [22], in the series on HT-29 [23], in the series on HT-29 [24] and with HCT-116 [25] was Active.

In turn, `CC[C@H](CO)Nc1nc(NCc2ccccc2)c2ncn(C(C)C)c2n1` [SELICICLIB] gave a clearance in series [2] of 0.85 mL/min. Further, in series [4], the Cmax was determined as 93.7 µM. The AUC at 24 h in series [6] came out at 53.4 µM·h. Moreover, the GI50 with A2780 [7] was 4.45 µM; in the series with CH1 [8], 3.25 µM; with HT-29 [9], 6.4 µM; with CH1 [17] it was 5.4 µM; with HCT-116 [19] it was 5.05 µM. In series [10], the Vd was 0.073 L. The compound also had an IC50 in [13] greater than 50 µM. For the same compound, in [14], the metabolised at 0.5 h, 10 µM turned out to be 67%. The same compound showed a half-life in [18] of 1.4 h.
